“And” between values parts separate entries of the source, which are not always exact repeats. Equal values may be shown once.
Key:
[1] = biological target: T1, Bovine (aorta) LOX (Bos taurus, UniProt P33072); assay: Amplex Red oxidation assay, LOX inhibition; format: biochemical; conditions: 30 min pre-incubation
T1 construct: Bovine (aorta) LOX used for analog screening due to ready availability; from tissue; host or cells: bovine aorta
T1 sequence (P33072 170-418): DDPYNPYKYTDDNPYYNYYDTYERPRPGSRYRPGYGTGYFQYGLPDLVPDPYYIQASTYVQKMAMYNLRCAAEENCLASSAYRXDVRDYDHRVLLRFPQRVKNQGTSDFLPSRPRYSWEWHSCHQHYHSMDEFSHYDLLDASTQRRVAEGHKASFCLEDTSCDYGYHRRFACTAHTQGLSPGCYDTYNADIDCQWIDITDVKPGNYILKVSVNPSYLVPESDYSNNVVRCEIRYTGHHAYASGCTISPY
Description: (§1) The measurement of the enzymatic activity of all lysyl oxidase family members was based on the detection of hydrogen peroxide with an Amplex-Red oxidation assay, as previously described; miniaturized in 384 well formats, with the appropriate combination of substrate and assay buffer for each individual enzyme. After a 30 min pre-incubation of the enzyme at 37 °C with the test compound (or with different incubation times for the time-dependency assay), one volume of reaction mixture containing 120 μM Amplex Red (AR) (Life Technologies), 1.5 U/mL horseradish peroxidase (HRP) (Sigma-Aldrich) and the specific substrate was added to each sample. The relative fluorescence units (RFU) were then measured every 2.5 min for 30 min at 37 °C, excitation 565 nm and emission 590, on a BMG Clariostar Microplate Reader. All the substrates were used at concentrations corresponding to their Km towards the corresponding enzyme, or with a range of different concentrations for the substrate competition experiments.
(§2) Lysyl oxidases assay buffer contained 1.2 M urea, 50 mM sodium borate buffer, pH 8.2 and 100 µM β-aminoproprionitrile (BAPN, Sigma-Aldrich) was used for low control.

[2] = biological target: T2, Human recombinant LOXL2 (Homo sapiens, UniProt Q9Y4K0); assay: Amplex Red oxidation assay, LOXL2 inhibition; format: biochemical; conditions: 30 min pre-incubation; read-out: LOXL2 IC50
T2 construct: purchased R&D Systems
T2 sequence (Q9Y4K0 26-774): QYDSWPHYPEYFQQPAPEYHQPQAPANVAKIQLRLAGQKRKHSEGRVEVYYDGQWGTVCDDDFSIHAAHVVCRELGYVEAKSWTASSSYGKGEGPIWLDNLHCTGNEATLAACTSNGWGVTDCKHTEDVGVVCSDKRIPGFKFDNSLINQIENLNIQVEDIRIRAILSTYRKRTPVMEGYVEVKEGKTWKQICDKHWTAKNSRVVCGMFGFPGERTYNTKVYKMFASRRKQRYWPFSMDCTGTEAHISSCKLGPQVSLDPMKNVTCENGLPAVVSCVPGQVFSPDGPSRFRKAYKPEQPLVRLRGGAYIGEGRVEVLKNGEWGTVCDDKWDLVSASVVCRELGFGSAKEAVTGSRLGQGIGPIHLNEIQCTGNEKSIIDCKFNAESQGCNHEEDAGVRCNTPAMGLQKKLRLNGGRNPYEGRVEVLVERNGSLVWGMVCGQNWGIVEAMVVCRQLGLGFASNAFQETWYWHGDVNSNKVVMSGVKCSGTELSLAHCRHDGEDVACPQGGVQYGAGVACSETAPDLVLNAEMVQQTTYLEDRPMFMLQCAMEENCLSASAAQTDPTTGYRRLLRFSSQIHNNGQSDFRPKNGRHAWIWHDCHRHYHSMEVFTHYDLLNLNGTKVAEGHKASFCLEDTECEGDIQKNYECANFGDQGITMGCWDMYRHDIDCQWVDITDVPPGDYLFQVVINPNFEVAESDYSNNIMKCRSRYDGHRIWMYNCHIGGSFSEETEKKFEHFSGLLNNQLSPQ
Description: (§3) For compound oxidation assays, the amount of hydrogen peroxide generated at a single concentration (30 µM) of compound relative to DMSO was measured.
as §1, §2
Recombinant human LOXL1 was expressed and purified from cDNA (GeneArt) and 10 mM putrescine was used as substrate. Recombinant human and mouse LOXL2 (R&D Systems) were challenged with 5 mM putrescine (Sigma-Aldrich) as the substrate. Rat and dog recombinant LOXL2 were amplified and purified in house from HEK-293 clones kindly provided by Dr. Fernando Rodríguez Pascual, Madrid University, and used in the same conditions as for the human form. 2 mM putrescine was used as the substrate for recombinant human LOXL3 (R&D Systems) and LOXL4 (Dr. Fernando Rodríguez Pascual, university of Madrid, Spain) assays.

[3] = biological target: T3, Human Recombinant SSAO (Homo sapiens, UniProt Q16853); assay: Compound oxidation assay (substrate propensity) by SSAO; format: biochemical; conditions: single concentration 30 µM
T3 sequence (Q16853 1-763): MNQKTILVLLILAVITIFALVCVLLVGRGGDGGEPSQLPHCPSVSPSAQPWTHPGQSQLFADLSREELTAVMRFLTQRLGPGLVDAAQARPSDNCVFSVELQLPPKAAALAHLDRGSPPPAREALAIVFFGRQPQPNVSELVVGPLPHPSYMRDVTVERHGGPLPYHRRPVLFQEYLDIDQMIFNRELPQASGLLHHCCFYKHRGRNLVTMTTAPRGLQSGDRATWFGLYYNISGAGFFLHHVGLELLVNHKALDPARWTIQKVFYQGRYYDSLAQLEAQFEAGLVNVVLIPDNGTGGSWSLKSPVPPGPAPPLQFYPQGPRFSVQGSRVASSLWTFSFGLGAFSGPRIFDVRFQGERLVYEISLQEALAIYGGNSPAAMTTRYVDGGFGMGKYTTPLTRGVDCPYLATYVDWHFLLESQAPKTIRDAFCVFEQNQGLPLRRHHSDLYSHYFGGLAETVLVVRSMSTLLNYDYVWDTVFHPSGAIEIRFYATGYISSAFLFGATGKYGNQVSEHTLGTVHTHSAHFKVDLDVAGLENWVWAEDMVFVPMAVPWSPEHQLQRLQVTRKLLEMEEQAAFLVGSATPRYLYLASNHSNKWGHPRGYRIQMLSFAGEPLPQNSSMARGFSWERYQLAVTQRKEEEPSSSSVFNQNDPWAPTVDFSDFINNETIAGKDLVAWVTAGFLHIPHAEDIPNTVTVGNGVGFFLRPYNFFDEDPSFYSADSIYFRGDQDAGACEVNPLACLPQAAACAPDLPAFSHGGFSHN
Description: as §3
Data are expressed as mean ± SEM. Subsequent statistical analysis was performed with unpaired two-sided Student’s t tests. *p < 0.05, **p < 0.01, ***p < 0.001and ****p < 0.0001. Source data are provided as a Source Data file.
This assay determines the substrate propensity of a compound relative to background (dimethyl sulfoxide only). Compound oxidation by rhSSAO was measured by fluorometric assay. Briefly, rhSSAO was incubated for 2 h at 37 °C in HEPES buffer before the addition of an equal volume of Amplex Red ([…]), horseradish peroxidase (4 U/ml), and test compound in the same buffer. The kinetics of the formation of resorufin was measured immediately using Optima reader (BMG Labtech GmbH, Ortenburg, Germany), at 37 °C.

[4] = tested on: chicken lysyl oxidase; set-up: method as in earlier work; conditions: cited from earlier work
[5] = Franz Cell skin permeability assay; format: in vitro ADME, human; conditions: average of 3 samples

IC50 [1] | IC50 [2] [µM] | Oxidation by SSAO (hydrogen peroxide generated relative to DMSO) [3] | Structure (SMILES) | other results
10.8 µM | 0.9 | 2.6 | NC/C=C(\F)CN1CCc2ccccc21 [compound 5] | –
8.4 µM and 8 µM | 1.1 | – | NC/C=C(\F)COc1ccccc1 [compound 4] | –
13.6 µM | 3.4 | 5.5 | NC/C=C(\F)CNc1ccccc1 [compound 6] | –
8.5 µM | 1.1 | 68 | NC/C=C(\F)CSc1ccccc1 [compound 7] | –

More lines, now with the values behind:

Structure (SMILES) | IC50 [1] | IC50 [2] [µM] | Oxidation by SSAO (hydrogen peroxide generated relative to DMSO) [3] | other results
NC/C(=C\F)COc1ccccc1 [compound 2] | > 30 µM | 8.7 | 1.1 | –
NC/C=C(/F)COc1ccccc1 [compound 3] | 13.5 µM | 2.9 | 12.0 | –
NC/C(=C/F)CCc1ccc(F)cc1 [Mofegiline, mofegiline, reference compound] | 56 µM | > 10 | 1.0 | inhibition of chicken lysyl oxidase activity [4]: modest inhibitor
NCC(=CF)COc1ccccc1 [compound 1] | > 30 µM | 9.5 | 1.1 | –
NC/C=C(\F)C(F)(F)S(=O)(=O)c1ccccc1 [Samples 6302] | – | – | – | Avg. 6302 concentration ([5]; 0hr): 0 µM; Avg.6302 concentration ([5]; 0hr): 0.000 ng/mL; Avg. 6302 concentration ([5]; 2hr): 0.017 µM; Avg.6302 concentration ([5]; 2hr): 4.559 ng/mL; Avg. 6302 concentration ([5]; 4hr): 0.042 µM; Avg.6302 concentration ([5]; 4hr): 11.109 ng/mL; Avg. 6302 concentration ([5]; 6hr): 0.166 µM; Avg.6302 concentration ([5]; 6hr): 44.135 ng/mL; Avg. 6302 concentration ([5]; 20hr): 1.742 µM; Avg.6302 concentration ([5]; 20hr): 462.127 ng/mL
